{"source": "patent US6849602B1", "about": "(The Regents of the University of California, priority 1996, dated 2005)", "key": {"control rats": {"system": "control rats", "experiment": "Formalin test in control rats", "assay_type": "in vivo, rat", "settings": "single bolus doses of up to 1 mg/kg i.p. 30 min pre-test"}, "neuroblastoma cells": {"system": "neuroblastoma cells", "experiment": "Neurotrophic activity (neurite outgrowth, choline acetyltransferase, cell death)", "assay_type": "cell-based"}, "Selzer rat model": {"system": "Selzer rat model", "experiment": "Hyperalgesia (hot plate withdrawal) in Selzer model rats", "assay_type": "in vivo", "settings": "intravenous at a dose of 200 mg/kg", "method": "After induction of hyperalgesia by ligation of the sciatic nerve in one hind limb, the animals were injected with Prosaptide TX 14(A). Relief was measured using the hot plate withdrawal technique comparing ligated vs. unligated hind foot withdrawal. […] The relief lasted for up to 48 hours post injection."}, "STZ-diabetic rats": {"system": "STZ-diabetic rats", "experiment": "Nerve function, thermal response and body weight in STZ-diabetic rats", "assay_type": "in vivo, rat", "settings": "for decline in SNCV between weeks 4 and 8 of diabetes: 200 μg/kg i.p. thrice weekly beginning after 4 weeks of diabetes", "method": "Control and STZ-diabetic rats were treated using 1000 μg prosaptide TX 14(A) per kg body weights i.p., three times per week for 8 weeks.\nIn this EXAMPLE, control and STZ-diabetic rats were treated with prosaptide TX 14(A) at doses of 20 μg/kg, 200 μg/kg, and 1000 μg/kg body weight, i.p., three times per week for 8 weeks. The rats were weighed at the beginning, midpoint and the end of the experiment and motor nerve conduction (MNCV) and sensor nerve conduction velocity (SNCV) measurements were taken at the three time points.\nThese deficits were attenuated by thrice weekly treatment (1 mg/kg i.p. for 8 weeks) with prosaptide (58.1±1.2 and 54.9±1.3 respectively).\nThis EXAMPLE was designed to determine whether prosaptide could also reverse conduction deficits and hyperalgesia in the formalin test pain model once these disorders are established in diabetic rats. SNCV was measured before onset of diabetes and 4-8 weeks later in groups of control, untreated diabetic and prosaptide-treated (200 μg/kg i.p. thrice weekly for the last 4 weeks) diabetic rats. Flinch responses to injection of formalin (50 μl or 0.5% or 5.0% solution) were followed for 60 min in control, 8 week untreated diabetic, 8 week diabetic treated with prosaptide (200 μg/kg i.p.) 30 min pre-test and 8 week diabetic treated with prosaptide (200 μg/kg i.p.) thrice weekly for the last 4 weeks (the last treatment being 48-72 hr pre-test)."}, "Chung model rats": {"system": "Chung model rats", "experiment": "Tactile allodynia (von Frey, 50% paw withdrawal threshold) after bolus intrathecal injection in Chung model rats", "assay_type": "in vivo, rat", "method": "Each of the three peptides were obtained in pure form by chemical synthesis, dissolved in sterile PBS and buffered to a neutral pH.\nThe surgical procedure previously described by Kim and Chung, supra (1992) was performed on male Sprague-Dawley rats weighing 120 to 150 grams to induce an allodynic state. Briefly, the rats were anesthetized with halothane; subsequently, the left L-5 and L-6 spinal nerves were isolated adjacent to the vertebral column and ligated with 6.0 silk suture distal to the dorsal root ganglion.\nAfter a ten to fourteen day post operative recovery period, a spinal catheter was introduced. Five days following the second surgery, intrathecal drug administration was accomplished using a gear driven micro-injection syringe connected to a spinal catheter inserted through the foramen magnum. Prior to testing, the rats were placed in clear plastic wire meshed cages and allowed to acclimate.\nTo assess the 50% mechanical threshold for paw withdrawal, a von Frey hair was applied to the hind foot avoiding the foot pad. Each of the von Frey hairs, which are calibrated to bend at increasing log forces, were pressed perpendicularly to the foot with sufficient force to cause slight bending for a duration of approximately six to eight seconds. A positive response was noted if the foot was sharply withdrawn. Six data points were collected for each point with the maximum and minimum stimulus noted for each time point. The resulting pattern of the responses was tabulated, and the 50% response threshold was computed. The graph gives the response to the indicated dosage of peptide given as a single intrathecal bolus injection. The X-axis indicates the time after the injection at which point the hypersensitivity to pressure on the foot pad was measured."}, "[1]": {"system": "NS20Y neuroblastoma cells", "experiment": "Neurite outgrowth in NS20Y neuroblastoma cells", "assay_type": "cell-based", "method": "NS20Y neuroblastoma cells are grown in Dulbecco's modified Eagle medium (DMEM) containing 10% fetal calf serum (FCS). Cells are removed with trypsin and plated in 30 mm petri dishes onto glass coverslips. […] Cells are cultured for an additional 24 hours, washed with PBS and fixed with Bouin's solution (saturated aqueous picric acid/formalin/acetic acid 15:5:1) for 30 minutes. After fixative is removed with PBS, neurite outgrowth is scored under a phase contrast microscope. […] At least 200 cells are scored in different positions of each dish to determine the percentage of neurite bearing cells with each peptide assayed in duplicate."}, "Schwann cells": {"system": "Schwann cells", "experiment": "Schwann cell death in culture (inhibition of demyelination)", "assay_type": "cell-based", "excerpt": "Reduction of Schwann cell death is correlated with inhibition of demyelination. Schwann cells contain an extensive myelin sheath."}, "NS20Y cells": {"system": "NS20Y cells", "experiment": "Neural cell death (trypan blue) in NS20Y cells", "assay_type": "cell-based", "settings": "8 ng/ml, 2 days in 0.5% fetal bovine serum", "method": "Media is removed and 0.2% trypan blue in PBS is added to each well. Dead cells stain blue with the trypan blue dye and are scored as a percentage of the total on an inverted microscope, counting 400 cells in four areas of each well. The average error of duplicates is ±5%."}, "taxol-treated mice": {"system": "taxol-treated mice", "experiment": "Loss of thermal sensation (Hargreaves) in taxol-treated mice", "assay_type": "in vivo, mouse", "settings": "100 μg/kg, 200 μg/kg or 1 mg/kg", "method": "Mice were administered taxol in order to induce sensory neuropathy.\nThe loss of thermal sensation was measured using a Hargreaves sensory testing apparatus as an indicator of sensory neuropathy."}, "[2]": {"settings": "1 mg/kg i.p. thrice weekly for 8 weeks, diabetic rats"}}, "note": "Entries after “also recorded” stand apart in the source; their conditions may differ. Non-standard residues stand in square brackets, D forms with d. No end group written: not given here.", "data": [{"substance": "T[dA]LIDNNATEEILY [SEQ ID NO:2]", "values": [{"measurement": "responses to formalin in control rats", "setting": "control rats", "value": "without effect on responses to formalin"}, {"measurement": "neurotrophic activity", "setting": "neuroblastoma cells", "value": "have neurotrophic activity"}, {"measurement": "duration of relief post injection", "setting": "Selzer rat model", "value": "up to 48 hours"}, {"measurement": "relief of hyperalgesia", "setting": "Selzer rat model", "value": "nearly complete relief of hyperalgesia"}, {"measurement": "time after injection to relief", "setting": "Selzer rat model", "value": "≤ 3", "unit": "h"}, {"measurement": "thermal response latency", "setting": "STZ-diabetic rats; 20 μg treatment group", "value": "intermediate response"}, {"measurement": "decline in SNCV between weeks 4 and 8 of diabetes", "setting": "STZ-diabetic rats; listed as prosaptide", "value": "prevents any further decline in SNCV"}, {"measurement": "decline in SNCV between weeks 4 and 8 of diabetes", "setting": "STZ-diabetic rats; listed as prosaptide TX 14(A)", "value": "halts progressive slowing of sensory conduction"}, {"measurement": "thermal hypoalgesia", "setting": "STZ-diabetic rats; 1000 μg per kg i.p., three times per week for 8 weeks", "value": "prevented hypoalgesia"}, {"measurement": "hyperglycemia and loss of body weight", "setting": "STZ-diabetic rats; 1000 μg per kg i.p., three times per week for 8 weeks (EXAMPLE XIV)", "value": "did not prevent hyperglycemia or loss of body weight"}, {"measurement": "MNCV", "setting": "STZ-diabetic rats; [2]", "value": "58.1±1.2", "unit": "m/s"}, {"measurement": "SNCV", "setting": "STZ-diabetic rats; [2]", "value": "54.9±1.3", "unit": "m/s"}, {"measurement": "thermal response latency (thermal hypoalgesia)", "setting": "STZ-diabetic rats; [2]", "value": "8.8 ± 0.6", "unit": "s"}, {"measurement": "weight loss compared to diabetic animals", "setting": "STZ-diabetic rats; 20, 200 and 1000 μg/kg i.p., three times per week for 8 weeks", "value": "significant decreases in weight loss in a dose dependent manner"}, {"measurement": "thermal response latency", "setting": "STZ-diabetic rats; 200 and 1000 μg", "value": "restored to control non-diabetic levels"}, {"measurement": "motor nerve conduction velocities", "setting": "STZ-diabetic rats; 200 and 1000 μg/kg, compared to untreated diabetic group and 20 μg/kg", "value": "enhanced motor nerve conduction velocities"}, {"measurement": "loss of sensory nerve conduction velocity", "setting": "STZ-diabetic rats; all treated groups (20, 200, 1000 μg/kg)", "value": "slower loss of sensory nerve conduction velocity"}, {"measurement": "thermal hypoalgesia and decline in nerve conduction velocities during 8 weeks of diabetes", "setting": "STZ-diabetic rats; time course study, thrice weekly 20, 200 or 1000 μg i.p.", "value": "attenuated by prosaptide in a dose-dependent manner"}, {"measurement": "time of maximum (peak) effect post-injection", "setting": "Chung model rats; intrathecal bolus", "value": "15 to 30", "unit": "min"}, {"measurement": "time of return to the pre-injection value", "setting": "Chung model rats; intrathecal bolus, FIG. 2", "value": "≤ 60", "unit": "min"}, {"measurement": "tactile allodynia (force threshold)", "setting": "Chung model rats; intrathecal bolus, doses of FIG. 2", "value": "effective in reducing allodynia"}, {"measurement": "activity in alleviating neuropathic pain as assayed using Chung rats", "setting": "Chung model rats; summary statement", "value": "reduces the painful allodynia; also recorded: alleviate neuropathic pain"}, {"measurement": "neurite outgrowth (percentage of neurite bearing cells)", "setting": "[1]; 24 hours, compared to a scrambled control peptide", "value": "significantly increases neurite outgrowth"}, {"measurement": "concentration at which increased neurite outgrowth is evident", "setting": "[1]; as little as", "value": 0.5, "unit": "ng/mL"}, {"measurement": "Schwann cell death", "setting": "Schwann cells", "value": "reduces Schwann cell death in a dose-dependent manner"}, {"measurement": "number of trypan blue-positive (dead) cells", "setting": "NS20Y cells", "value": "substantially reduces the number of trypan blue-positive (dead) cells"}, {"measurement": "loss of thermal sensation", "setting": "taxol-treated mice", "value": "effective in inhibiting loss of thermal sensation"}]}]}
